Values of other authors, collected in patent US20110177042A1, “Method for Dedifferentiating Melanocytes” (priority 2008, published 2011).

Test system: Notch1
Conditions: identified in cited literature (Xiao 2009; Adler 2008; Stockhausen 2005)

Structure (SMILES)	Notch1 activation
CCCC(CCC)C(=O)O [valproic acid]	strong Notch1 activators
O=C(CCCCCCC(=O)NO)NO [suberoyl bis-hydroxamic acid]	strong Notch1 activators
